This passage reports CLi human results from US20260199309A1, “COMPOUNDS FOR THE TREATMENT OF CENTRA NERVOUS SYSTEM DISORDERS” (Autifony Therapeutics Limited, priority 2022, published 2026).

A short description of this data set: In vitro metabolic stability (CLint), human. Type of data set: in vitro ADME. The conditions noted are these: intrinsic clearance, incubation 0-30 minutes at 37° C. with NADPH regenerating system. How it is done: The objective of this study was to determine metabolic stability of test items in preclinical species and human liver microsomes. Verapamil and dextromethorphan were used as positive controls for microsomal incubation.
Incubation medium was prepared by combining 11.2 mL of potassium phosphate monobasic and 38.8 mL of potassium phosphate dibasic, diluted to 1 L with water. Cryopreserved microsomes were thawed and kept on ice until use. Microsomes were then diluted in incubation to a protein concentration of 0.56 mg/mL. Cells were centrifuged, re-suspended in medium and counted by means of a haemocytometer. Cell viability was measured using the Trypan Blue exclusion test.
NADPH regenerating system solution was prepared by dissolving 1.7 mg of NADP, 7.8 mg of G6P and 6 units of G6P-Dehydrogenase in 1 mL of 2% sodium bicarbonate solution (prepared by dissolving 20 g of NaHCO3 in 1 L of water).
Test compounds were separately dissolved in DMF to obtain 10 mM stock solutions that were further diluted in water/acetonitrile 50/50 (v/v) to obtain the corresponding 50 uM working solutions. Verapamil and dextromethorphan were dissolved in DMF in order to obtain a 10 mM verapamil solution and 10 mM dextromethorphan solution. These solutions were then diluted in the incubation medium in order to obtain a 50 uM verapamil working solution and a 50 uM dextromethorphan working solution.
800 μL-aliquots of NADPH regenerating system were pre-warmed at 37° C. for 5 minutes. […]
Metabolic stability was calculated from the peak area ratio of the remaining test compound with internal standard versus time. The intrinsic clearance (CLint) was determined from the first order elimination constant k (min^−1) (obtained from GraphPad by plotting the natural logarithm of the peak area ratio of the remaining test item with internal standard versus time), using the actual volume of the incubation V (mL), the amount of hepatocytes in the incubation M (million cells) and the hepatocellularity number per g liver Hn (120 for human).

For `Cc1ccc(Oc2ccc(N3C(=O)NC(C)(C)C3=O)c(N)n2)c2c1OCC21CC1` [Example 1, 3-[2-amino-6-(7-methylspiro[2H-benzofuran-3,1′-cyclopropane]-4-yl)oxy-3-pyridyl]-5,5-dimethyl-imidazolidine-2,4-dione], the CLi human is 1.1 mL/min/g liver.
To `CC1(C)NC(=O)N(c2ccc(Oc3cccc(OC(F)(F)F)c3)nc2N)C1=O` [Example 9, 3-[2-amino-6-[3-(trifluoromethoxy)phenoxy]-3-pyridyl]-5,5-dimethyl-imidazolidine-2,4-dione] belongs less than 0.5 mL/min/g liver; to `COc1nc(Oc2ccc(C)c3c2C2(CC2)CO3)ccc1N1C(=O)NC(C)(C)C1=O` [Reference Example 2, reference compound], 2.0 mL/min/g liver.
